Results: patent US11713344B2 (DONG-A ST CO., LTD., priority 2017, dated 2023)
*1 amine or outer side, *2 acyl side, *3 side chain or, on linkers, in order; H or OH if unused. Where a SMILES comes first, the peptide text is derived from it. Side-chain parts run from the residue outwards. [ ]: non-standard residue; d: D form. The star is where a group is joined. γGlu = O=C(O)[C@H](CCC(=O)[*:2])N[*:1]; Stearoyl = CCCCCCCCCCCCCCCCCC(=O)*; AEEA = NCCOCCOCC(=O)O; Aib = CC(C)(N)C(=O)O

Columns and labels:
[1] = target: Human glucagon receptors (Homo sapiens, UniProt P47871); test: Glucagon receptor activation assay (CRE-luciferase reporter, CHO-K1)
Human glucagon receptors, sequence (P47871 26-477): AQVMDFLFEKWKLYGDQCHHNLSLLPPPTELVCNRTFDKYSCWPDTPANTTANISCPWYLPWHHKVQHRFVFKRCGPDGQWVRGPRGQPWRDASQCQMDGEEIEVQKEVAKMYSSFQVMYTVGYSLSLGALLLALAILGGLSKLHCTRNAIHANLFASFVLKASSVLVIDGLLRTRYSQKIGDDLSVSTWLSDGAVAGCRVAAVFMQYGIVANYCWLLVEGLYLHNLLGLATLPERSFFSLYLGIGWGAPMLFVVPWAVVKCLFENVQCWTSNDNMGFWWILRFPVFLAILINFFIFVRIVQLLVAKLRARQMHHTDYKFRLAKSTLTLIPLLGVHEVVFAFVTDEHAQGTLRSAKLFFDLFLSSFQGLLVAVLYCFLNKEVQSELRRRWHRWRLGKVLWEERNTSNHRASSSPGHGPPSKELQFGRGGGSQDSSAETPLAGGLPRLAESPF
Protocol: (§1) Then, the resulting increased luciferase activity was evaluated as a measurement of the effect on each receptor activation.
(§2) After 3 hours of transfection, medium was exchanged to Alpha Minimal Essential Medium (α-MEM) comprising 10% fetal bovine serum (FBS). Next day, the medium was exchanged to α-MEM comprising the analog of the present invention and 0.1% bovine serum albumin (BSA). After 6 hours, dual luciferase assay reagent was added in the same amount as the medium in which the cells were submerged, and firefly luciferase and Renilla luciferase activities were continuously measured. Firefly luciferase activity values were corrected against Renilla luciferase activity to yield transfection efficiency.

[2] = target: Human GLP-1 receptors (Homo sapiens, UniProt P43220); test: GLP-1 receptor activation assay (CRE-luciferase reporter, CHO-K1)
Human GLP-1 receptors, sequence (P43220 24-463): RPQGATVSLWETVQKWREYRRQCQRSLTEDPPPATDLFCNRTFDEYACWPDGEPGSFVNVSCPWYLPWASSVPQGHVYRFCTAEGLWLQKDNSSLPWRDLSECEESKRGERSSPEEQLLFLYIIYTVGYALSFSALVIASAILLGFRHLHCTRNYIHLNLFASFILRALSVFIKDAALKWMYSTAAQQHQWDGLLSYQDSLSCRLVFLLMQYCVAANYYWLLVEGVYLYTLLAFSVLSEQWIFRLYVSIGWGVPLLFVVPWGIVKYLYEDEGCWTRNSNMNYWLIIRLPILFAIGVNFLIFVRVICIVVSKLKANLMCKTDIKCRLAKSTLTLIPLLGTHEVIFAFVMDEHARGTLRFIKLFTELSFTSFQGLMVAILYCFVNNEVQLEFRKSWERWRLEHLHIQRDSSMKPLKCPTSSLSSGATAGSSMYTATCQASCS
Protocol: as §1, §2

Compound | EC50 [1] [nM] | EC50 [2] [nM]
CCCCCCCCCCCCCCCCCC(=O)N[C@@H](CCC(=O)NCCOCCOCC(=O)NCCOCCOCC(=O)NCCCC[C@H](NC(=O)[C@H](CC(=O)O)NC(=O)[C@H](CO)NC(=O)[C@@H](NC(=O)[C@H](Cc1ccccc1)NC(=O)[C@@H](NC(=O)CNC(=O)[C@H](CCC(N)=O)NC(=O)C(C)(C)NC(=O)[C@@H](N)Cc1c[nH]cn1)[C@@H](C)O)[C@@H](C)O)C(=O)N[C@@H](CO)C(=O)N[C@@H](CCCCN)C(=O)N[C@@H](Cc1ccc(O)cc1)C(=O)N[C@@H](CC(C)C)C(=O)N[C@@H](CC(=O)O)C(=O)N[C@H]1CCC(=O)NC2CCC(CC2)C(=O)NCCCC[C@@H](C(=O)N[C@@H](CC(=O)O)C(=O)N[C@@H](Cc2ccccc2)C(=O)N[C@H](C(=O)N[C@@H](CCC(N)=O)C(=O)N[C@@H](Cc2c[nH]c3ccccc23)C(=O)N[C@@H](CC(C)C)C(=O)N[C@@H](CCSC)C(=O)N[C@@H](CC(N)=O)C(=O)N[C@H](C(=O)N[C@@H](CCCCN)C(=O)O)[C@@H](C)O)C(C)C)NC(=O)[C@H](C)NC(=O)[C@H](CCCNC(=N)N)NC(=O)[C@H](CCCNC(=N)N)NC1=O)C(=O)O [Compound 33, H-HAibQGTFTSDZSKYLDERRAKDFVQWLMNTK-OH] | < 0.01 | < 0.01
CCCCCCCCCCCCCCCCCC(=O)N[C@@H](CCC(=O)NCCOCCOCC(=O)NCCOCCOCC(=O)NCCCC[C@H](NC(=O)[C@H](CC(=O)O)NC(=O)[C@H](CO)NC(=O)[C@@H](NC(=O)[C@H](Cc1ccccc1)NC(=O)[C@@H](NC(=O)CNC(=O)[C@H](CCC(N)=O)NC(=O)C(C)(C)NC(=O)[C@@H](N)Cc1c[nH]cn1)[C@@H](C)O)[C@@H](C)O)C(=O)N[C@@H](CO)C(=O)N[C@@H](CCCCN)C(=O)N[C@@H](Cc1ccc(O)cc1)C(=O)N[C@@H](CC(C)C)C(=O)N[C@@H](CC(=O)O)C(=O)N[C@H]1CCC(=O)NCC(=O)NCCCC[C@@H](C(=O)N[C@@H](CC(=O)O)C(=O)N[C@@H](Cc2ccccc2)C(=O)N[C@H](C(=O)N[C@@H](CCC(N)=O)C(=O)N[C@@H](Cc2c[nH]c3ccccc23)C(=O)N[C@@H](CC(C)C)C(=O)N[C@@H](CCSC)C(=O)N[C@@H](CC(N)=O)C(=O)N[C@H](C(=O)N[C@@H](CCCCN)C(=O)O)[C@@H](C)O)C(C)C)NC(=O)[C@H](C)NC(=O)[C@H](CCCNC(=N)N)NC(=O)[C@H](CCCNC(=N)N)NC1=O)C(=O)O [Compound 35, H-HAibQGTFTSDZSKYLDERRAKDFVQWLMNTK-OH] | < 0.01 | < 0.01
CCCCCCCCCCCCCCCCCC(=O)N[C@@H](CCC(=O)NCCOCCOCC(=O)NCCOCCOCC(=O)NCCCC[C@H](NC(=O)[C@H](CC(=O)O)NC(=O)[C@H](CO)NC(=O)[C@@H](NC(=O)[C@H](Cc1ccccc1)NC(=O)[C@@H](NC(=O)CNC(=O)[C@H](CCC(N)=O)NC(=O)C(C)(C)NC(=O)[C@@H](N)Cc1c[nH]cn1)[C@@H](C)O)[C@@H](C)O)C(=O)N[C@@H](CO)C(=O)N[C@@H](CCCCN)C(=O)N[C@@H](Cc1ccc(O)cc1)C(=O)N[C@@H](CC(C)C)C(=O)N[C@@H](CC(=O)O)C(=O)N[C@H]1CC(=O)NCC(=O)NCCCC[C@@H](C(=O)N[C@@H](CC(=O)O)C(=O)N[C@@H](Cc2ccccc2)C(=O)N[C@H](C(=O)N[C@@H](CCC(N)=O)C(=O)N[C@@H](Cc2c[nH]c3ccccc23)C(=O)N[C@@H](CC(C)C)C(=O)N[C@@H](CCSC)C(=O)N[C@@H](CC(N)=O)C(=O)N[C@H](C(=O)N[C@@H](CCCCN)C(=O)O)[C@@H](C)O)C(C)C)NC(=O)[C@H](C)NC(=O)[C@H](CCCNC(=N)N)NC(=O)[C@H](CCCNC(=N)N)NC1=O)C(=O)O [Compound 37, H-HAibQGTFTSDZSKYLDDRRAKDFVQWLMNTK-OH] | < 0.01 | < 0.01
CCCCCCCCCCCCCCCCCC(=O)N[C@@H](CCC(=O)NCCOCCOCC(=O)NCCOCCOCC(=O)NCCCC[C@H](NC(=O)[C@H](CC(=O)O)NC(=O)[C@H](CO)NC(=O)[C@@H](NC(=O)[C@H](Cc1ccccc1)NC(=O)[C@@H](NC(=O)CNC(=O)[C@H](CCC(N)=O)NC(=O)C(C)(C)NC(=O)[C@@H](N)Cc1c[nH]cn1)[C@@H](C)O)[C@@H](C)O)C(=O)N[C@@H](CO)C(=O)N[C@@H](CCCCN)C(=O)N[C@@H](Cc1ccc(O)cc1)C(=O)N[C@@H](CC(C)C)C(=O)N[C@@H](CC(=O)O)C(=O)N[C@H]1CC(=O)N[C@@H](CC(C)C)C(=O)NCCCC[C@@H](C(=O)N[C@@H](CC(=O)O)C(=O)N[C@@H](Cc2ccccc2)C(=O)N[C@H](C(=O)N[C@@H](CCC(N)=O)C(=O)N[C@@H](Cc2c[nH]c3ccccc23)C(=O)N[C@@H](CC(C)C)C(=O)N[C@@H](CCSC)C(=O)N[C@@H](CC(N)=O)C(=O)N[C@H](C(=O)N[C@@H](CCCCN)C(=O)O)[C@@H](C)O)C(C)C)NC(=O)[C@H](C)NC(=O)[C@H](CCCNC(=N)N)NC(=O)[C@H](CCCNC(=N)N)NC1=O)C(=O)O [Compound 38, H-HAibQGTFTSDZSKYLDDRRAKDFVQWLMNTK-OH] | < 0.01 | < 0.01
CSCC[C@H](NC(=O)[C@H](CC(C)C)NC(=O)[C@H](Cc1c[nH]c2ccccc12)NC(=O)[C@H](CCC(N)=O)NC(=O)[C@@H](NC(=O)[C@H](Cc1ccccc1)NC(=O)[C@H](CC(=O)O)NC(=O)[C@H](CCC(N)=O)NC(=O)[C@H](C)NC(=O)[C@H](CCCNC(=N)N)NC(=O)[C@H](CCCNC(=N)N)NC(=O)C(C)(C)NC(=O)[C@H](CC(=O)O)NC(=O)[C@H](CC(C)C)NC(=O)[C@H](Cc1ccc(O)cc1)NC(=O)[C@H](CCCCN)NC(=O)[C@H](CO)NC(=O)[C@H](CCCCN)NC(=O)[C@H](CC(=O)O)NC(=O)[C@H](CO)NC(=O)[C@@H](NC(=O)[C@H](Cc1ccccc1)NC(=O)[C@@H](NC(=O)CNC(=O)[C@H](CCC(N)=O)NC(=O)C(C)(C)NC(=O)[C@@H](N)Cc1c[nH]cn1)[C@@H](C)O)[C@@H](C)O)C(C)C)C(=O)N[C@@H](CC(N)=O)C(=O)N[C@H](C(=O)N[C@@H](CCCCN)C(=O)O)[C@@H](C)O [Compound 39] | > 1 | > 1

Other lines, results leading:

EC50 [1] [nM] | EC50 [2] [nM] | Compound
> 1 | 0.1 to 1 | CCCCCCCCCCCCCCCCCC(=O)N[C@@H](CCC(=O)NCCOCCOCC(=O)NCCOCCOCC(=O)NCCCC[C@H](NC(=O)[C@H](CO)NC(=O)[C@@H](NC(=O)[C@H](Cc1ccccc1)NC(=O)[C@@H](NC(=O)CNC(=O)[C@H](CCC(N)=O)NC(=O)C(C)(C)NC(=O)[C@@H](N)Cc1c[nH]cn1)[C@@H](C)O)[C@@H](C)O)C(=O)N[C@@H](Cc1ccc(O)cc1)C(=O)N[C@@H](CO)C(=O)N[C@@H](CCCCN)C(=O)N[C@@H](Cc1ccc(O)cc1)C(=O)N[C@@H](CC(C)C)C(=O)N[C@@H](CC(=O)O)C(=O)NC(C)(C)C(=O)N[C@@H](CCCNC(=N)N)C(=O)N[C@@H](CCCNC(=N)N)C(=O)N[C@@H](C)C(=O)N[C@@H](CCC(N)=O)C(=O)N[C@@H](CC(=O)O)C(=O)N[C@@H](Cc1ccccc1)C(=O)N[C@H](C(=O)N[C@@H](CCC(N)=O)C(=O)N[C@@H](Cc1c[nH]c2ccccc12)C(=O)N[C@@H](CC(C)C)C(=O)N[C@@H](CCSC)C(=O)N[C@@H](CC(N)=O)C(=O)N[C@H](C(=O)N[C@@H](CCCCN)C(=O)O)[C@@H](C)O)C(C)C)C(=O)O [Compound 40] (H-H[Aib]QGTFTSK([AEEA-AEEA-γGlu-Stearoyl])YSKYLD[Aib]RRAQDFVQWLMNTK-OH)
> 1 | 0.1 to 1 | CSCC[C@H](NC(=O)[C@H](CC(C)C)NC(=O)[C@H](Cc1c[nH]c2ccccc12)NC(=O)[C@H](CCC(N)=O)NC(=O)[C@@H](NC(=O)[C@H](Cc1ccccc1)NC(=O)[C@H](CC(=O)O)NC(=O)[C@H](CCC(N)=O)NC(=O)[C@H](C)NC(=O)[C@H](CCCNC(=N)N)NC(=O)[C@H](CCCNC(=N)N)NC(=O)C(C)(C)NC(=O)[C@H](CC(=O)O)NC(=O)[C@H](CC(C)C)NC(=O)[C@H](Cc1ccc(O)cc1)NC(=O)[C@H](CCCCN)NC(=O)[C@H](CO)NC(=O)[C@H](CCCCNC(=O)COCCOCCNC(=O)COCCOCCNC(=O)CC[C@H](NC(=O)CCCCCCCCCCCCCCC(=O)O)C(=O)O)NC(=O)[C@H](CC(=O)O)NC(=O)[C@H](CO)NC(=O)[C@@H](NC(=O)[C@H](Cc1ccccc1)NC(=O)[C@@H](NC(=O)CNC(=O)[C@H](CCC(N)=O)NC(=O)C(C)(C)NC(=O)[C@@H](N)Cc1c[nH]cn1)[C@@H](C)O)[C@@H](C)O)C(C)C)C(=O)N[C@@H](CC(N)=O)C(=O)N[C@H](C(=O)N[C@@H](CCCCN)C(=O)O)[C@@H](C)O [Compound 42]
> 1 | > 1 | CSCC[C@H](NC(=O)[C@H](CC(C)C)NC(=O)[C@H](Cc1c[nH]c2ccccc12)NC(=O)[C@H](CCC(N)=O)NC(=O)[C@@H](NC(=O)[C@H](Cc1ccccc1)NC(=O)[C@H](CC(=O)O)NC(=O)[C@H](CCC(N)=O)NC(=O)[C@H](C)NC(=O)[C@H](CCCNC(=N)N)NC(=O)[C@H](CCCNC(=N)N)NC(=O)C(C)(C)NC(=O)[C@H](CC(=O)O)NC(=O)[C@H](CC(C)C)NC(=O)[C@H](Cc1ccc(O)cc1)NC(=O)[C@H](CCCCN)NC(=O)[C@H](CO)NC(=O)[C@H](CCCCNC(=O)COCCOCCNC(=O)COCCOCCNC(=O)CC[C@H](NC(=O)CCCCCCCCCCCCCCCCC(=O)O)C(=O)O)NC(=O)[C@H](CC(=O)O)NC(=O)[C@H](CO)NC(=O)[C@@H](NC(=O)[C@H](Cc1ccccc1)NC(=O)[C@@H](NC(=O)CNC(=O)[C@H](CCC(N)=O)NC(=O)C(C)(C)NC(=O)[C@@H](N)Cc1c[nH]cn1)[C@@H](C)O)[C@@H](C)O)C(C)C)C(=O)N[C@@H](CC(N)=O)C(=O)N[C@H](C(=O)N[C@@H](CCCCN)C(=O)O)[C@@H](C)O [Compound 43]
> 1 | 0.1 to 1 | CSCC[C@H](NC(=O)[C@H](CC(C)C)NC(=O)[C@H](Cc1c[nH]c2ccccc12)NC(=O)[C@H](CCC(N)=O)NC(=O)[C@@H](NC(=O)[C@H](Cc1ccccc1)NC(=O)[C@H](CC(=O)O)NC(=O)[C@H](CCC(N)=O)NC(=O)[C@H](C)NC(=O)[C@H](CCCNC(=N)N)NC(=O)[C@H](CCCNC(=N)N)NC(=O)C(C)(C)NC(=O)[C@H](CC(=O)O)NC(=O)[C@H](CC(C)C)NC(=O)[C@H](Cc1ccc(O)cc1)NC(=O)[C@H](CCCCN)NC(=O)[C@H](CO)NC(=O)[C@H](CCCCNC(=O)COCCOCCNC(=O)COCCOCCNC(=O)CC[C@H](NC(=O)CCCCCCCCCCCCCCCCCCC(=O)O)C(=O)O)NC(=O)[C@H](CC(=O)O)NC(=O)[C@H](CO)NC(=O)[C@@H](NC(=O)[C@H](Cc1ccccc1)NC(=O)[C@@H](NC(=O)CNC(=O)[C@H](CCC(N)=O)NC(=O)C(C)(C)NC(=O)[C@@H](N)Cc1c[nH]cn1)[C@@H](C)O)[C@@H](C)O)C(C)C)C(=O)N[C@@H](CC(N)=O)C(=O)N[C@H](C(=O)N[C@@H](CCCCN)C(=O)O)[C@@H](C)O [Compound 44]
